From paper PMC9525908, “α-Crystallin chaperone mimetic drugs inhibit lens γ-crystallin aggregation: Potential role for cataract prevention” (The Journal of Biological Chemistry, 2022)
Entries after “also recorded” stand apart in the source; their conditions may differ.

Key:
[1] = biological target: T1, HγD (Homo sapiens, UniProt P07320); settings: 600 μM drug C, tested by an outside laboratory; cited from earlier work
T1 construct: made in house; host or cells: E. coli BL21(DE3) pLysS, pET3d vector
T1 sequence (P07320 1-174): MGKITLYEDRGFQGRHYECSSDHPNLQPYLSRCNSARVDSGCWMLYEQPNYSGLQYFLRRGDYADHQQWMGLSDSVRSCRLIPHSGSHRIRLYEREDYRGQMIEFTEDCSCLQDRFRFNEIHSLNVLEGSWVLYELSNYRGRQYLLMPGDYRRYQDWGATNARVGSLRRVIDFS

[2] = biological target: T2, HγD-ox (Homo sapiens, UniProt P07320); assay: Turbidity (600 nm) of oxidized HγD heated 10 min at 72 °C; format: biochemical; settings: 1.4 mg/ml with DTPA, 100 and 500 μM bis-ANS, 100 μM drug C, 500 μM drug M
T2 construct: made in house; host or cells: Escherichia coli BL21(DE3) pLysS, pET3d vector
T2 sequence (P07320 1-174): T1 sequence (P07320 1-174)
Excerpt: (§1) In postsubmission experiments, we attempted to find mechanistic clues relevant to the use of an H2O2 oxidation step prior to the thermal stress used during the initial drug screen. For this reason, we did a comparative study of oxidized (HγD-ox) versus native HγD (HyD-nat), hypothesizing that bis-ANS would both act like the drugs and provide information on the role of exposed hydrophobicity ([40]). HγD was oxidized in diethylenetriaminepentaacetic acid […] phosphate buffer to facilitate hydroxyl radical formation and protein damage, followed by dialysis against DTPA-treated buffer to eliminate the known proaggregating effects of divalent metals ([32]) in the subsequent steps. […] Overall protective effects were more pronounced for the oxidized than nonoxidized form of HγD. […] In the hope to obtain clues on the impact of bis-ANS, drugs C, G, and M on protein aggregation status, native PAGE was performed (Fig. 3G). Polymers greater than 250 kD are present in unheated HγD-nat but only the size of 75 to 100 kD in HγD-ox. […] Other techniques will be needed to assess the relationship between drugs and aggregate size.

[3] = system: Total mouse gamma crystallins; assay: H2O2 oxidation-mediated aggregation of total mouse γ-crystallins, 600 nm; format: biochemical; settings: 2.5 mg/ml, H2O2, 18 h at 37 °C
Procedure: In preparation for possible in vivo testing, the drugs were tested against native mouse γ-crystallins. Total gamma crystallins (2.5 mg/ml) were incubated with H2O2 for 18 h at 37 °C with increasing concentrations of drugs X, C, and G, or a combination thereof. Oxidative stress–mediated aggregation at 600 nm was suppressed by drug C but poorly by drug G (Fig. S4A, left panel). […] The baseline increase at 50 μM could reflect a destabilizing effect of the drugs because of a pro-oxidative mechanism followed by stabilizing chaperone-like effect. […] There is 52.6% more aggregation of OPJ-MγS in comparison to WT-MγS under same conditions of thermal stress. […] Fluorescence microscopy using Nile Red provides a pictorial rendition of the type and size of aggregates formed on heating WT-MγS and OPJ-MγS, with and without drugs (Fig. S4F). […] The bis-ANS fluorescence inhibition pattern is again in complete agreement with the previous results for HγD (Fig. 2F). […] As for the reproducibility of these findings, see Fig. S7 and the warning note under Rigor and reproducibility section.

[4] = biological target: T3, 15N-labeled HyD (Homo sapiens, UniProt P07320); assay: NMR HSQC of 15N-labeled HyD with drug C; format: binding; settings: 100 μM protein, 600 μM drug C, 5% DMSO
T3 sequence (P07320 1-174): T1 sequence (P07320 1-174)

[5] = biological target: T4, WT-HγD crystallin (Homo sapiens, UniProt P07320); assay: Thermal unfolding of WT-HγD by fluorescence ratio (Tm); format: biochemical; settings: for Tm: 10 μM WT-HγD, 100 μM drug, fluorescence ratio 360/330 nm, control 81 °C; for Tm of HγD-nat: 100 μM agent, 360/320 nm ratio, 78 ± 0.1 °C without agent; for Elevation of Tm of HγD: versus control 81 °C
T4 construct: made in house; host or cells: E. coli BL21(DE3) pLysS, pET3d vector
T4 sequence (P07320 1-174): T1 sequence (P07320 1-174)
Excerpt: His-tag free recombinant HγD crystallin produced in Escherichia coli using pET3d or pET17b expression vector was used to investigate the effects of compounds C and G against thermal-induced unfolding and aggregate formation. The antiaggregation potency of drug C and G was reconfirmed by dynamic light scattering (DLS) (Fig. 2A). […] There is a decrease in the size of aggregates from as high as 7261 nm without drugs to 30.5 nm with drug C and 84.9 nm with drug G. Drug M has moderate activity with mean aggregate size of 569 nm radius (Table S2). […] Furthermore, we investigated whether these drugs can prevent thermal unfolding of HγD (Fig. 2C). […] It is the temperature at which 50% of the protein unfolds.
(§2) Thermal denaturation study was monitored using fluorescence spectroscopy. Protein solutions (10 μM) in the presence and absence of drugs or bis-ANS (100 μM) were heated continuously from 30 to 95 °C, and the fluorescence data were collected every 5 °C after 1 min equilibration at the given temperature. Unfolding data were fit to Greene and Pace’s two-state model ([82]) using GraphPad Prism software (GraphPad Software, Inc).

[6] = biological target: T2, HγD-ox; assay: Thermal unfolding (Tm) of oxidized HγD; format: biochemical; settings: 100 μM agent, 360/320 nm ratio; 68 ± 0.07 °C without agent
Excerpt: as §1, §2

## Cc1cc(C(C#N)c2ccc(Cl)cc2)c(Cl)cc1NC(=O)c1cc(I)cc(I)c1O (centres unmarked) [drug C, Closantel]
[1]
  Effect on heat-mediated aggregation of HγD: worsening
[2]
  Effect on aggregation/turbidity of HγD-ox: strongly suppressed
[3]
  Oxidative stress–mediated aggregation at 600 nm: suppressed
[4]
  HSQC spectra, drug-treated versus control sample: no significant differences
[5]
  Tm: 85 °C
  Tm of HγD-nat: increased all Tm values to the maximum value
  Elevation of Tm of HγD: 4 °C
[6]
  Tm of HγD-ox: increased all Tm values to the maximum value

## O=C(O)CCCCCCCCCCCC[C@@H]1C=CCC1 [drug M, Chaulmoogric acid]
[2]
  Effect on aggregation/turbidity of HγD-ox: strongly suppressed; also recorded: protected oxidized HγD

## CC(C)=CCC[C@]1(C)C=Cc2c(O)c3c(c(CC=C(C)C)c2O1)O[C@]12C(=C[C@@H]4C[C@H]1C(C)(C)O[C@@]2(C/C=C(/C)C(=O)O)C4=O)C3=O [drug G, Gambogic acid]
[3]
  Oxidative stress–mediated aggregation at 600 nm: poorly
[5]
  Tm: 85 °C
  Tm of HγD-nat: increased all Tm values to the maximum value
  Elevation of Tm of HγD: 4 °C
[6]
  Tm of HγD-ox: increased all Tm values to the maximum value
